In patent US11072812B2, “Substrates for covalent tethering of proteins to functional groups or solid surfaces” (PROMEGA CORPORATION, priority 2013, dated 2021):
Entries after “also recorded” stand apart in the source; their conditions may differ. Blank lines part the entries; values can stand above or below the compound they belong to.

How the values were obtained:
[1] = biological target: T1, glucocorticoid receptor (GR) (Homo sapiens, UniProt P04150); test: Glucocorticoid receptor competitor assay (fluorescence polarization, Life Technology); assay type: binding; conditions: dexamethasone-chloroalkane conjugates (carbamate linker = PBI-4980)
T1 construct: purchased Life Technology
T1 sequence (P04150 1-777): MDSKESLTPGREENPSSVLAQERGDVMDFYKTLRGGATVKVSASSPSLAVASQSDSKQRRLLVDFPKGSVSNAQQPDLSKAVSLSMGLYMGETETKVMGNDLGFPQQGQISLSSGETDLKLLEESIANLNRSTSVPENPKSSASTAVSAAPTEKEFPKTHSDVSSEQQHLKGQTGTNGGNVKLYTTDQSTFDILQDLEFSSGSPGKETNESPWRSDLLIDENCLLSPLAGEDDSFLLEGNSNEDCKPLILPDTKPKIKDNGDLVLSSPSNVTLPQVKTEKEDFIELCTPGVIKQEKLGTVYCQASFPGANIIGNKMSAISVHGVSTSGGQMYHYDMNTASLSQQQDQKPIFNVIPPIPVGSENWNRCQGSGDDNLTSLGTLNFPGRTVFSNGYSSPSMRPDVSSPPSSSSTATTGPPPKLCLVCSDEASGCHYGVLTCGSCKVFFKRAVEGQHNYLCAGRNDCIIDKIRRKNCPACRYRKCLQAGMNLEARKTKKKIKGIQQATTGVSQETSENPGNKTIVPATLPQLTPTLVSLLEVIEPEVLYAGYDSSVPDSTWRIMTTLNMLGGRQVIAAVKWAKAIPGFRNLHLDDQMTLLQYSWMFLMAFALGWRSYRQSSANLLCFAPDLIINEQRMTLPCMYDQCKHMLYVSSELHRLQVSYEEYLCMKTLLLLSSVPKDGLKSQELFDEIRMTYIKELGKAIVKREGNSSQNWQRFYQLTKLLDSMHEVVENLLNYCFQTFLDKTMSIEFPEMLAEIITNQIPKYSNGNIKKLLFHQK
Source text: c) Binding efficiency to the target glucocorticoid receptor (GR) was done using the glucocorticoid receptor competitor assay (Life Technology) as recommended by the manufacturer.

HaloTag® protein [2] = test: Binding efficiency/kinetics to HaloTag protein in cell lysate (chase with fluorescent HaloTag ligand, SDS-PAGE); conditions: 1 μM; for binding efficiency / labeling kinetics to HaloTag protein in lysate: methotrexate-chloroalkane conjugates, 0-60 min (O4 = PBI-4849, O6 = PBI-4850)
Method: (§1) a) Binding efficiency to HaloTag® protein in lysate was measured by adding the methotrexate-chloroalkane conjugates to lysate from cells expressing a HaloTag® protein to a final concentration of 1 μM. Following 0-60 mins of binding, the reactions were chased with 1 μM fluorescent HaloTag® ligand. Unbound HaloTag® protein was detected through binding to the fluorescent HaloTag® ligand followed by analysis on SDS-PAGE gel and detection on a fluorescent gel scanner.
as §1, with “adding the dexamethasone-chloroalkane conjugates to” for “adding the methotrexate-chloroalkane conjugates to”, “the fluorescent HaloTag ligand followed” for “the fluorescent HaloTag® ligand followed”
a) Binding kinetics to HaloTag® protein in cell lysate was measured by adding the modified BIRB796-chloroalkane conjugates to lysate from cells expressing a HaloTag® protein at a final concentration of 1 μM. After 0-60 min of binding, the reactions were chased with 1 μM fluorescent HaloTag® ligand (Promega Corporation). Unbound HaloTag® protein was detected through binding to the fluorescent HaloTag® ligand followed by analysis on SDS-PAGE and detection on a fluorescent gel scanner.
Following 0-60 min of binding, the reactions were chased with 1 μM fluorescent HaloTag® ligand. Unbound HaloTag® protein was detected through binding to the fluorescent HaloTag® ligand followed by analysis on SDS-PAGE and detection on a fluorescent gel scanner.
a) Binding kinetics to HaloTag® protein in cell lysate was measured by adding the dasatinib-chloroalkane conjugates to lysate (final concentration of 1 μM) from cells expressing a HaloTag® protein. Following 0-60 min of binding, the reactions were chased with 1 μM fluorescent HaloTag® ligand. Unbound HaloTag® protein was detected through binding to the fluorescent HaloTag® ligand followed by analysis on SDS-PAGE and detection on a fluorescent gel scanner.

HaloTag® protein [3] = test: Binding efficiency/kinetics to HaloTag protein in cells (cell permeability; chase with fluorescent HaloTag ligand, SDS-PAGE); assay type: cell-based; conditions: 10 μM
Method: b) Binding efficiency to HaloTag® protein in cells was measured by adding the methotrexate-chloroalkane conjugates to cells expressing a HaloTag® protein to a final concentration of 10 μM. Following 0-120 mins of binding, the reactions were chased with 5 μM fluorescent HaloTag® ligand. Unbound HaloTag® protein was detected through binding to the fluorescent HaloTag® ligand followed by cell lysis, analysis on a SDS-PAGE gel and detection on a fluorescent gel scanner.
b) Binding efficiency to HaloTag® protein in cells was measured by adding the dexamethasone-chloroalkane conjugates to cells expressing a HaloTag® protein to a final concentration of 10 μM. Following 0-60 mins of binding, the reaction was chased with 5 μM fluorescent HaloTag ligand. Unbound HaloTag® protein was detected through binding to the fluorescent HaloTag® ligand followed by cell lysis, analysis on SDS-PAGE gel and detection on a fluorescent gel scanner.
b) Binding kinetics to HaloTag® protein in cells was measured by adding the modified BIRB796-chloroalkane conjugates to cells expressing a HaloTag® protein at a final concentration of 10 μM. Following 0-60 min of binding, the reactions were chased with 5 μM fluorescent HaloTag® ligand. Unbound HaloTag® protein was detected through binding to the fluorescent HaloTag® ligand followed by cell lysis, analysis on SDS-PAGE and detection on a fluorescent gel scanner.
Following 0-180 min of binding, the reactions were chased with 5 μM fluorescent HaloTag® ligand. Unbound HaloTag® protein was detected through binding to the fluorescent HaloTag® ligand followed by cell lysis, analysis on SDS-PAGE and detection on a fluorescent gel scanner.
b) Binding kinetics to HaloTag® protein in cells was measured by adding the dasatinib-chloroalkane conjugates (final concentration of 10 μM) to cells expressing a HaloTag protein which localized to the cytoplasm or the nucleus. Following 0-90 min of binding, the reactions were chased with 5 μM fluorescent HaloTag® ligand. Unbound HaloTag® protein was detected through binding to the fluorescent HaloTag® ligand followed by cell lysis, analysis on SDS-PAGE and detection on a fluorescent gel scanner.

NanoLuc:GR fusion = biological target: T2, NanoLuc:GR fusion (Homo sapiens, UniProt P04150); test: Pull-down of NanoLuc:GR fusion from live HEK293 cells onto HaloTag protein beads; assay type: cell-based; conditions: HEK293, 10 μM conjugate, 2 h; beads 45 min; release with 150 μM dexamethasone; PBI-4980 compared with PBI-4025
T2 construct: expressed in transfected cells; host or cells: HEK293
T2 sequence (P04150 1-777): T1 sequence (P04150 1-777)
Method: HEK293 cells were plated and transfected using PEI with plasmid DNA encoding NanoLuc:GR fusion in wells of a 96-well plate. The DNA was diluted 1:50 with a promoterless carrier DNA plasmid (pCI neo) to a final concentration of 80 ng total DNA per well. Twenty-four hours post-transfection, cells were serum starved for additional 24 hours then incubated with a final concentration of 10 μM PBI-4980 or PBI-4025 while control cells were not treated with the conjugated drug. Following equilibration binding of 2 h, the media was removed, cells quickly washed with PBS and lysed in detergent-based lysis buffer for 10 min. Cell lysates were than transferred to wells of a 96-well plate containing 0.5 μl settled paramagnetic HaloTag® protein beads and incubated with shaking for 45 min. Following binding the unbound fraction was removed, the HaloTag® protein paramagnetic beads were washed 3×, and the captured NanoLuc fusion was specifically released from the beads by competition with 150 μM unconjugated Dexamethasone for 60 min. The released NanoLuc:GR (+PBI-4980 or +PBI-4025) and control samples were detected by using the NanoGlo® assay reagent (Promega Corp).

[4] = biological target: T3, NanoLuc-DHFR fusion protein (Homo sapiens, UniProt P00374); test: Pull-down of NanoLuc-DHFR fusion from living HEK293 cells onto HaloTag protein beads; assay type: cell-based; conditions: HEK293, 10 uM conjugate, 2 h; beads 45 min; release with 150 μM methotrexate
T3 construct: expressed in transfected cells; host or cells: HEK293
T3 sequence (P00374 1-187): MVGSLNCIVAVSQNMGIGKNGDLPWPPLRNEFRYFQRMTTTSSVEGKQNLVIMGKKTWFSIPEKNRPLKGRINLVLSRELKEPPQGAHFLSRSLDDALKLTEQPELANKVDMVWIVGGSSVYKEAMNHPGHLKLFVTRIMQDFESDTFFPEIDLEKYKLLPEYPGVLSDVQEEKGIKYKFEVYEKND
Method: HEK293 cells were plated and transfected using PEI with plasmid DNA encoding a NANOLUC-DHFR fusion in wells of a 96-well plate. The DNA was diluted 1:50 with a promoterless carrier DNA plasmid (pCI) to a final concentration of 80 ng total DNA per well. Twenty-four hours post-transfection, cells were serum starved for additional 24 hours and then treated with […] 10 uM PBI-4848 or PBI-5015 while control cells were not treated with the conjugated drug. Following equilibration binding of 2 h, the media was removed, and the cells quickly washed with PBS and lysed in detergent-based lysis buffer for 10 min. Cell lysates were then transferred to wells of a 96-well plate containing 0.5 μl settled paramagnetic HALOTAG protein beads and incubated with shaking for 45 min. Following binding, the unbound fraction was removed, the HALOTAG protein paramagnetic beads washed, 150 μM unconjugated methotrexate added, and the captured NANOLUC:DHFR specifically released from the beads by competition with the unconjugated methotrexate for 60 min. The released NANOLUC:DHFR (+PBI-5015 or +PBI-4848) and control samples were detected by NANOGLO luciferase detection reagent.

[5] = biological target: T4, ABL-NanoLuc® fusion protein (Homo sapiens, UniProt P00519); test: Pull-down of ABL-NanoLuc fusion from live HEK293 cells onto HaloTag protein beads; assay type: cell-based; conditions: HEK293, 20 μM conjugate, 2 h; beads 15 min; release with 400 μM dasatinib
T4 construct: expressed in transfected cells; host or cells: HEK293
T4 sequence (P00519 whole entry, the tested form may be a part): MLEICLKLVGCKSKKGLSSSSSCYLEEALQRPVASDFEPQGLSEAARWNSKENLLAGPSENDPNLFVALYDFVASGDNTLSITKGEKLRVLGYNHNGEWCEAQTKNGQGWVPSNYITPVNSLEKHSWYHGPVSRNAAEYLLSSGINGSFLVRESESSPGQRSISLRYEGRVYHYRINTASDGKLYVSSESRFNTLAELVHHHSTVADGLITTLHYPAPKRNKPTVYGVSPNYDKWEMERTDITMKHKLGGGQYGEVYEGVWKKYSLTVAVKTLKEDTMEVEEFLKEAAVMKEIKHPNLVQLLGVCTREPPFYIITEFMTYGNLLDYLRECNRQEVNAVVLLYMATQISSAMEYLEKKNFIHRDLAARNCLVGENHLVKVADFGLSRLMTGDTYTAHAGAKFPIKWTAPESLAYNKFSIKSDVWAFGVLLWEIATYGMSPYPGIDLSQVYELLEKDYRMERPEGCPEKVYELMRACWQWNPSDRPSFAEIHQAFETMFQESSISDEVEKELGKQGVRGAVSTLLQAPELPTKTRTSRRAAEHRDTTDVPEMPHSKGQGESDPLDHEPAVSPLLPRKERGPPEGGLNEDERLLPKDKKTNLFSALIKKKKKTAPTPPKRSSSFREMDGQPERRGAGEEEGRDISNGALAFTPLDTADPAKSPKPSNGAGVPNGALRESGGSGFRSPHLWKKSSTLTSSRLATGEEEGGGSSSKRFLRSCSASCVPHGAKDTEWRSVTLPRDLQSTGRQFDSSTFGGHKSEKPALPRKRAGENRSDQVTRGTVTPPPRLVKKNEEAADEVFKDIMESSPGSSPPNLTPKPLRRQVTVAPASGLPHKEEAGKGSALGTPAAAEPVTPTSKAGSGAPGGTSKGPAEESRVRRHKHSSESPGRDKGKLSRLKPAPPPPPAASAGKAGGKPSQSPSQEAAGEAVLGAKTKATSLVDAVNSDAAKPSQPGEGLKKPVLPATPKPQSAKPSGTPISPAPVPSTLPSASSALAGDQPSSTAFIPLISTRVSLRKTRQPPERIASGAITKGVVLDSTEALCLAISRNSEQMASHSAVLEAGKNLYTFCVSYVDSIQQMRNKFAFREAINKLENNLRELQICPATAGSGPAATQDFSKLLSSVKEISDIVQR
Method: c) The 2 carbamate linkers were also compared for their ability to specifically pull down a ABL-NanoLuc® fusion protein from live cells. HEK293 cells were transfected using PEI with plasmid DNA encoding ABL-NanoLuc® fusion (transfection was done in a 96-well format). The DNA was diluted 1:100 with a promoterless carrier DNA plasmid (pCI-neo; Promega Corporation) to a final concentration of 80 ng total DNA per well. Twenty-four hours post-transfection, cells were incubated with a final concentration of 20 μM PBI-5270 or PBI-5590 while control cells were not treated with the conjugated drug. Following equilibration binding of 2 h, the media was removed; cells were quickly washed with PBS; and cells lysed in detergent-based lysis buffer for 10 min. Cell lysates were then transferred to a 96-well plate containing 0.5 μl settled paramagnetic HaloTag® protein beads and incubated with shaking for 15 min. Following binding, the unbound fraction was removed, the HaloTag® protein paramagnetic beads were washed 3×, and the captured ABL-NanoLuc® fusion was specifically released from the beads by competition with 400 μM unconjugated dasatinib for 15 min. The released ABL-NanoLuc® fusion in the experiment (+PBI-5270 or +PBI-5590) and control samples was detected by NanoGlo® reagent.

[6] = methotrexate-chloroalkane conjugates, 0-120 min (O4 = PBI-4849, O6 = PBI-4850)

Compound: C[C@@H]1CC2[C@@H]3CCC4=CC(=O)C=C[C@]4(C)[C@@]3(F)[C@@H](O)C[C@]2(C)[C@@]1(O)C(=O)NCCOCCOCCOCCOCCC(=O)NCCOCCOCCCCCCCl (some centres unmarked) [PBI-4025]
affinity / binding efficiency to glucocorticoid receptor [1]: highest affinity; also recorded: best binding efficiency; also recorded: higher affinity

Compound: CC(C)(C)c1cc(NC(=O)Nc2ccccc2)n(-c2cccc(CNC(=O)CNC(=O)CCC(=O)NCCOCCOCCCCCCCl)c2)n1 [PBI-4832, BIRB* O2 Chloroalkane]
binding kinetics to HaloTag protein in cell lysate (HaloTag® protein [2]; modified BIRB796-chloroalkane conjugates, 0-60 min): fast binding kinetics

Compound: CN(Cc1cnc2nc(N)nc(N)c2n1)c1ccc(C(=O)NC(CCC(=O)NCCOCCOCCCCCCCl)C(=O)O)cc1 (centres unmarked) [PBI-4848, Methotrexate-O2 Chloroalkane]
binding efficiency / labeling kinetics to HaloTag protein in lysate (HaloTag® protein [2]): fast labeling kinetics
cell permeability/binding efficiency to HaloTag protein in cells (HaloTag® protein [3]; [6]): best cell permeability and binding efficiency; also recorded: higher cell permeability

Compound: C[C@@H]1CC2[C@@H]3CCC4=CC(=O)C=C[C@]4(C)[C@@]3(F)[C@@H](O)C[C@]2(C)[C@@]1(O)C(=O)NCCCCCNC(=O)OCCOCCOCCOC(=O)NCCOCCOCCCCCCCl (some centres unmarked) [PBI-4980, Dexamethasone Carbamate Chloroalkane]
binding kinetics to HaloTag protein in lysate (HaloTag® protein [2]; dexamethasone-chloroalkane conjugates, 0-60 min): faster binding kinetics
efficiency of Nluc:GR fusion pull down (NanoLuc:GR fusion): significantly higher
cell permeability/binding efficiency to HaloTag protein in cells (HaloTag® protein [3]; dexamethasone-chloroalkane conjugates, 0-60 min (O4 = PBI-4026, O6 = PBI-4025)): best cell permeability/binding efficiency
affinity / binding efficiency to glucocorticoid receptor [1]: best binding efficiency
affinity / binding efficiency to glucocorticoid receptor ([1]; listed as carbamate linker): highest affinity

Compound: CN(Cc1cnc2nc(N)nc(N)c2n1)c1ccc(C(=O)NC(CCC(=O)NCCCCCNC(=O)OCCOCCOCCOC(=O)NCCOCCOCCCCCCCl)C(=O)O)cc1 (centres unmarked) [PBI-5015, Methotrexate Carbamate Chloroalkane]
binding efficiency / labeling kinetics to HaloTag protein in lysate (HaloTag® protein [2]): fast labeling kinetics
pull-down of Nluc:DHFR fusion from living cells [4]: efficiently pulled down
cell permeability/binding efficiency to HaloTag protein in cells (HaloTag® protein [3]; [6]): good cell permeability and binding efficiency; also recorded: best cell permeability and binding efficiency

pull-down of ABL:NanoLuc fusion from live cells [5]: pulled down efficiently
Compound: Cc1nc(Nc2ncc(C(=O)Nc3c(C)cccc3Cl)s2)cc(N2CCN(CCOC(=O)NCCCCCNC(=O)OCCOCCOCCOC(=O)NCCOCCOCCCCCCCl)CC2)n1 [PBI-5270, Dasatinib Bis-Carbamate]

Compound: Cc1nc(Nc2ncc(C(=O)Nc3c(C)cccc3Cl)s2)cc(N2CCN(CCOC(=O)NCCOCCOCCCCCCCl)CC2)n1 [PBI-5590, Dasatinib Monocarbamate]
binding kinetics to HaloTag protein in cell lysate (HaloTag® protein [2]; dasatinib-chloroalkane conjugates, 0-60 min, compared with PBI-5270): faster binding kinetics
